Source: BigSolDB 2.1

O=[N+]([O-])c1c(Cl)cc(Cl)c([N+](=O)[O-])c1Cl
solubility (mole fraction)
Conditions	278.15 K	283.15 K	288.15 K	293.15 K	298.15 K	303.15 K	308.15 K	311.15 K	313.15 K	318.15 K
in 1,2-dichloroethane	0.0536	0.0636	0.0732	0.0837	0.0961	0.108	0.123	–	0.144	0.168
in acetone	0.0844	0.0944	0.106	0.117	0.13	0.145	0.162	–	0.18	0.2
in acetonitrile	0.0224	0.0267	0.0313	0.0373	0.0447	0.0531	0.0635	–	0.0769	0.0928
in chloroform	0.0715	0.0892	0.0997	0.11	0.121	0.129	0.141	–	0.165	0.197
in dichloromethane	0.0668	0.0758	0.0869	0.0981	0.11	0.125	0.141	0.147	–	–
in ethanol	0.00389	0.00461	0.00539	0.0062	0.00712	0.00831	0.00969	–	0.0113	0.0132
in ethyl acetate	0.0768	0.0849	0.0947	0.105	0.116	0.13	0.145	–	0.16	0.177
in methanol	0.0034	0.00426	0.00698	0.0221	0.0422	0.0562	0.0718	–	0.0849	0.0909
in methyl acetate	0.074	0.0832	0.0943	0.109	0.124	0.14	0.156	–	0.173	0.19
in n-butanol	0.00475	0.00566	0.00668	0.00776	0.00906	0.0108	0.013	–	0.0157	0.0189
in n-propanol	0.00412	0.0049	0.00565	0.00668	0.00793	0.00921	0.0109	–	0.0132	0.0158
in tetrachloromethane	0.0155	0.0185	0.0224	0.0277	0.0341	0.0411	0.0492	–	0.0589	0.0695
